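Grown in 96-well plates, cells were treated for 48 hours with each compound at five concentrations. Insufficient inhibition: endpoint recorded as highest concentration tested. TGI: total growth inhibition.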
Legend:
Test in all cases: NCI anticancer screen, dose series, 48 h
[1] = test system: OVCAR-4 ovarian
[2] = test system: 786-0 renal
[3] = test system: EKVX NSCLC
[4] = test system: MOLT-4 leukemia
[5] = test system: SF-539 CNS
[6] = test system: CAKI-1 renal
[7] = test system: HOP-92 NSCLC
[8] = test system: RXF 393 renal
[9] = test system: KM12 colon
[10] = test system: SW-620 colon
[11] = test system: NCI-H522 lung
[12] = test system: OVCAR-5 ovarian
[13] = test system: A498 renal
[14] = test system: UACC-62 melanoma
[15] = test system: CCRF-CEM leukemia
[16] = test system: SF-268 CNS
[17] = test system: PC-3 prostate
[18] = test system: T-47D breast
[19] = test system: OVCAR-3 ovarian
[20] = test system: SK-MEL-2 melanoma
[21] = test system: SN12C renal
[22] = test system: HS 578T breast
[23] = test system: MDA-N
[24] = test system: MCF7 breast
[25] = test system: MDA-MB-231 breast
[26] = test system: UO-31 renal
[27] = test system: SF-295 CNS
[28] = test system: RPMI-8226 leukemia
[29] = test system: HCC-2998 colon
[30] = test system: NCI/ADR-RES ovarian
[31] = test system: SNB-19 CNS
[32] = test system: HCT-116 colon
[33] = test system: HCT-15 colon
[34] = test system: SK-MEL-28 melanoma
[35] = test system: IGROV1 ovarian
[36] = test system: NCI-H460 lung
[37] = test system: SNB-75 CNS
[38] = test system: COLO 205 colon
[39] = test system: HT29 colon
[40] = test system: LOX IMVI melanoma
[41] = test system: UACC-257 melanoma
[42] = test system: A549 NSCLC
[43] = test system: MALME-3M melanoma
[44] = test system: HOP-62 NSCLC
[45] = test system: TK-10 renal
[46] = test system: DU-145 prostate
[47] = test system: SK-MEL-5 melanoma
[48] = test system: NCI-H23 lung
[49] = test system: OVCAR-8 ovarian
[50] = test system: SK-OV-3 ovarian
[51] = test system: M14 melanoma
[52] = test system: SR leukemia
[53] = test system: U251 CNS
[54] = test system: ACHN renal
[55] = test system: MDA-MB-435
[56] = test system: NCI-H226 lung
[57] = test system: BT-549 breast
[58] = test system: K-562 leukemia

## O=C(O)CSc1ccc(N=C=S)cc1
[1]
  TGI: > 100 µM
[2]
  TGI: > 100 µM
[3]
  TGI: > 100 µM
[4]
  TGI: > 100 µM
[5]
  TGI: 77.1 µM
[6]
  TGI: > 100 µM
[7]
  TGI: > 100 µM
[8]
  TGI: > 100 µM
[9]
  TGI: > 100 µM
[10]
  TGI: > 100 µM
[11]
  TGI: > 100 µM
[12]
  TGI: > 100 µM
[13]
  TGI: > 100 µM
[14]
  TGI: > 100 µM
[15]
  TGI: 51.5 µM
[16]
  TGI: > 100 µM
[17]
  TGI: > 100 µM
[18]
  TGI: > 100 µM
[19]
  TGI: > 100 µM
[20]
  TGI: > 100 µM
[21]
  TGI: > 100 µM
[22]
  TGI: > 100 µM
[23]
  TGI: > 100 µM
[24]
  TGI: > 100 µM
[25]
  TGI: > 100 µM
[26]
  TGI: > 100 µM
[27]
  TGI: > 100 µM
[28]
  TGI: 57.1 µM
[29]
  TGI: > 100 µM
[30]
  TGI: > 100 µM
[31]
  TGI: > 100 µM
[32]
  TGI: > 100 µM
[33]
  TGI: > 100 µM
[34]
  TGI: > 100 µM
[35]
  TGI: > 100 µM
[36]
  TGI: > 100 µM
[37]
  TGI: > 100 µM
[38]
  TGI: > 100 µM
[39]
  TGI: > 100 µM
[40]
  TGI: > 100 µM
[41]
  TGI: > 100 µM
[42]
  TGI: > 100 µM
[43]
  TGI: 84 µM
[44]
  TGI: > 100 µM
[45]
  TGI: > 100 µM
[46]
  TGI: > 100 µM
[47]
  TGI: > 100 µM
[48]
  TGI: > 100 µM
[49]
  TGI: > 100 µM
[50]
  TGI: > 100 µM
[51]
  TGI: > 100 µM
[52]
  TGI: 47.5 µM
[53]
  TGI: > 100 µM
[54]
  TGI: > 100 µM
[55]
  TGI: > 100 µM
[56]
  TGI: > 100 µM
[57]
  TGI: > 100 µM

## CCOC(=O)c1cn2c(n1)sc1cc(C)c(C)cc12
[1]
  TGI: > 100 µM
[2]
  TGI: 34.9 µM
[3]
  TGI: 61.7 µM
[4]
  TGI: 91.1 µM
[5]
  TGI: 29.6 µM
[6]
  TGI: 39.4 µM
[7]
  TGI: 65.4 µM
[8]
  TGI: 51.2 µM
[9]
  TGI: > 100 µM
[10]
  TGI: 65.1 µM
[11]
  TGI: 94.4 µM
[12]
  TGI: 36.4 µM
[13]
  TGI: 32.6 µM
[14]
  TGI: > 100 µM
[15]
  TGI: > 100 µM
[16]
  TGI: 52.7 µM
[17]
  TGI: 45.7 µM
[18]
  TGI: 62.1 µM
[19]
  TGI: 32.5 µM
[20]
  TGI: > 100 µM
[21]
  TGI: 36.8 µM
[22]
  TGI: 79.3 µM
[23]
  TGI: 22 µM
[24]
  TGI: > 100 µM
[25]
  TGI: 58.4 µM
[26]
  TGI: 35.4 µM
[27]
  TGI: > 100 µM
[28]
  TGI: 82.7 µM
[29]
  TGI: > 100 µM
[30]
  TGI: 67.5 µM
[31]
  TGI: 42.9 µM
[32]
  TGI: 33.7 µM
[33]
  TGI: > 100 µM
[34]
  TGI: 48.4 µM
[35]
  TGI: 56.5 µM
[36]
  TGI: > 100 µM
[37]
  TGI: 44.8 µM
[38]
  TGI: 55 µM
[39]
  TGI: 33.8 µM
[40]
  TGI: > 100 µM
[41]
  TGI: > 100 µM
[42]
  TGI: 38.2 µM
[43]
  TGI: 35.1 µM
[58]
  TGI: > 100 µM
[44]
  TGI: 34.3 µM
[45]
  TGI: 57.1 µM
[46]
  TGI: 48.8 µM
[47]
  TGI: 32.1 µM
[48]
  TGI: > 100 µM
[49]
  TGI: 52.3 µM
[50]
  TGI: 69.2 µM
[51]
  TGI: 85.2 µM
[52]
  TGI: > 100 µM
[53]
  TGI: 41.2 µM
[54]
  TGI: 35.3 µM
[55]
  TGI: > 100 µM
[56]
  TGI: 44.9 µM
[57]
  TGI: 72.4 µM

Source: PubChem BioAssay (NCI)
